These results are taken from patent US12527817B2, “Manufacturing of selenium disulfide compositions” (Azura Ophthalmics Ltd., priority 2020, dated 2026).

The nature of the data set: Particle size analysis under a microscope (400x magnification). It counts as physicochemical. The note with it: mixing liquid petrolatum at 60° C. with micronized SeS2, 400× microscope magnification. The procedure:
FIG. 4 illustrates SeS2 formulation obtained mixing liquid petrolatum at a temperature of 60° C. with micronized SeS2 at 400× microscope magnification showing the presence of SeS2 particles larger than 25 microns.
FIG. 3 illustrates a 1% SeS2 (w/w) formulation obtained using the low temperature process.
The active ingredient was SeS2, wherein the particle size distribution D90 is less than 10 microns. The base medium was USP grade petrolatum. A reaction vessel capable of accepting a high shear mixing apparatus was charged with the USP grade petrolatum. In order to create uniform particles distribution in the petrolatum, high shear mixing was applied to disperse the particles. Addition of the active ingredients to the bulk while the whole bulk is agitated is essential in order to properly disperse the active ingredient, the high shear head was used to break the agglomerates to primary particles creating a uniform and homogeneous paste.

For the molecule `S=[Se]=S` [SeS2, selenium disulfide], the SeS2 particle size entry is reported as “over 25 microns”.
